Patent US20030161893A1, “PTPase inhibitors and methods of using the same” (priority 2001, published 2003)
Several values for one entry are separate records, joined by “and”; a condition that tells them apart may be missing. Equal values may be shown once. Blank lines part the entries; values can stand above or below the compound they belong to.

Assays:
[1] = test system: GSTm8; assay: In vitro PTPase assay, GSTm8; assay type: biochemical; settings: 3-4 μg/ml or 10-100 μg/ml
[2] = molecular target: T1, MKP1 (Homo sapiens, UniProt P28562); assay: In vitro PTPase assay, GST/MKP1 fusion protein; assay type: biochemical
T1 construct: a pGEX construct containing the coding region of MKP1 cDNA derived by RT-PCR; made in house; host or cells: DH5a bacteria (E. coli)
T1 sequence (P28562 1-367): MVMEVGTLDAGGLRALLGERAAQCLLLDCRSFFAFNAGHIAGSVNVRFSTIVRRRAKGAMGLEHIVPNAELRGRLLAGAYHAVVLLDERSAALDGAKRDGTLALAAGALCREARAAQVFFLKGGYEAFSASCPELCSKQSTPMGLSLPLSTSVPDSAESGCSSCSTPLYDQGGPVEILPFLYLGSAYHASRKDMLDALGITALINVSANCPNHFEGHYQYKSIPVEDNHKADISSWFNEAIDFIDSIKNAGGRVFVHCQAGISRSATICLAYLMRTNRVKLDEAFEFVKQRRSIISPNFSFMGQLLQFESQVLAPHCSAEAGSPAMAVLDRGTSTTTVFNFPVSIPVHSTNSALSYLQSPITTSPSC

[3] = molecular target: T2, SHP-1 (Mus musculus, UniProt P29351); assay: In vitro PTPase assay, GST/SHP-1 fusion protein; assay type: biochemical
T2 construct: made in house
Procedure: In vitro PTPase activities were measured using the commercial protein tyrosine phosphatase assay kit (Upstate Biotechnology, Inc. (“UBI”)) following established procedure known to one of skill in the art. […] 100 μl of Malachite Green solution was added and incubated for 5 minutes, and the absorbance at 660 nm was measured after 5 minutes.
The beads were then either subjected to in vitro PTPase assays or washed 3 times in Tris buffer then subjected to in vitro PTPase assays.
Briefly, individual PTPases (0.1 μg/reaction) in 50 μL of PTPase buffer (50 mM Tris, pH 7.4) were incubated at 22° C. for 10 minutes or as indicated in the absence or presence of inhibitory compounds. […] […] […] Relative PTPase activities were calculated based on the formula: (PTPase activity in the presence of an inhibitory compound/PTPase activity in the absence of the compound)×100%. To assess the reversibility of PTPase inhibition, GST fusion proteins of the PTPases bound on glutathione beads (Pharmacia) were pre-incubated with cold Tris buffer (50 mM Tris, pH 7.0) or Tris buffer containing the inhibitor at 4° C. for 30 minutes. The beads were then washed three times in cold Tris buffer or not washed prior to subjecting to in vitro PTPase assays.

[4] = test system: NB4 cells; assay: NB4 cell growth (MTT), cell cycle and Annexin V; assay type: cell-based, human; settings: 3 days; sodium stibogluconate 250 μg/ml, ATRA 1 μM
Procedure: The NB4 cell line (Lanotte et al., Blood 77, 1080 (1991)) was a gift from Dr. Dan Lindner of the Cleveland Clinic Foundation. […] and U937 cell lines were purchased from American Type Culture Collection (Rockville, Md.). These human […] cell lines were maintained in RPMI 1640 medium supplemented with 10% fetal calf serum (FCS). For cell proliferation assays, cells were cultured at 37° C. in 10% FCS medium containing various amounts of sodium stibogluconate for 6 days. The cell numbers in the cultures were determined by an MTT assay as described previously in Mosmann, J. Imunol. Methods 65, 55 (1983).
The cell cycle was analyzed by flow cytometry after 3 days of culture of NB4 cells in the absence or presence of sodium stibogluconate (250 μg/ml) or ATRA (1 μM). Briefly, the cells were fixed in cold ethanol and incubated for 30 minutes at 4° C. in the dark with a solution of […] propidium iodide, 1 mg/ml RNase and 0.1% NP-40. Analysis was performed immediately after staining using the CELLFIT program (Becton Dickinson, Mountain View, Calif.).
Annexin V staining of exposed membrane phospholipid phosphatidylserine (PS) was done using the Annexin V assay kit (Pharmingen, San Diego, Calif.). Briefly, NB4 cells were cultured in the 10% FCS RPMI 1640 medium in the absence or presence of sodium stibogluconate (250 μg/ml) or ATRA (1 μM) for 3 days. Cells were then washed in PBS twice and stained in binding buffer (10 mM Hepes, pH 7.4; 140 mM NaCl; 2.5 mM CaCl2) containing Annexin V-FITC and propidium iodide for 15 min. The reaction was stopped by adding 10 volumes of binding buffer and analyzed by FACS (Becton Dickinson Facsvantage).

[5] = test system: U937 cells; assay: U937 cell differentiation (NBT reduction); assay type: cell-based, human; settings: day 6; sodium stibogluconate 400 μg/ml, GM-CSF 25 ng/ml, ATRA
Procedure: (§1) Differentiation of AML cell lines was assessed by their ability to produce superoxide as measured by reduction of NBT to formazan and by analysis of expression of CD11b surface marker by flow cytometry. For NBT reduction, each cell suspension was mixed with an equal volume of solution containing 1 mg/ml of NBT (Sigma) and 2.5 μg/ml of TPA for 30 minutes at 37° C. After incubation, cells containing the purple formazan deposits and cells devoid of NBT-reducing activity (white cells) in each sample were determined by counting 200 cells under microscope. Data is expressed as a percentage based on the following ratio: purple cells/purple+white cells. For analysis of cell surface antigens, cells were exposed to phycoerythrin (PE)-conjugated murine anti-human CD11b (DAKO Corp., Carpinteria, Calif.). Analysis of fluorescence was performed on a FACScan flow cytometer (Beckton Dickinson, Mountain View, Calif.).

[6] = test system: HL-60 cells; assay: HL-60 cell differentiation (NBT reduction); assay type: cell-based, human; settings: day 6; sodium stibogluconate 400 μg/ml, GM-CSF 25 ng/ml, ATRA
Procedure: as §1

[7] = molecular target: T3, PRL-3 (Homo sapiens, UniProt O75365); assay: In vitro PTPase assay, recombinant PRL-3; assay type: biochemical; settings: DiFMUP, comparable conditions
T3 construct: cDNAs of human PRL-1, PRL-2 and PRL-3 coding region were derived by RT-PCR from H9 cells; made in house; host or cells: DH5a bacteria (E. coli)
Description: Sodium stibogluconate, suramin, sodium orth ovanadate and GST fusion protein of SHP-1 have been described previously (Pathak et al., J. Imumol. 167, 3391 (2001)). Meglumine antimonate was obtained from Aventis. cDNAs of human PRL-1, PRL-2 and PRL-3 coding region were derived by RT-PCR from H9 cells (Safai, et al., Lancet 1, 1438 (1984)) and inserted in frame into the pGEX vector. cDNA of PRL-1R86 was generated by recombinant DNA technique using PRL-1 cDNA as template following established procedures (Jiao, et al., Mol. Cell. Biol. 16, 6985 (1996)). GST fusion proteins of the PRL phosphatases were prepared from DH5a bacteria transformed with the pGEX fusion protein constructs as described previously (Yi, et al., Mol. Cell. Biol. 12, 836 (1992)). cDNAs encoding the PRLs tagged at the N-termini with the Flag epitope (Castrucci, et al., J. Virol. 66, 4647 (1992)) were generated via recombinant DNA technique, sequenced to confirm their identities and cloned into the pBabepuro vector (Yang, et al., Blood 91, 3746 (1998)). Anti-Flag monoclonal antibody (M2, Sigma) was purchased from a commercial source. A synthetic phosphotyrosine peptide (Arg-Arg-Leu-Ile-Glu-Asp-Ala-Gle-Tyr-Ala-Ala-Arg-Gly (SEQ ID NO: 3), wherein the tyrosine is phosphorylated; UBI) and DiFMUP (6, 8-difluoro-4-methylumbelliferyl phosphate, Molecular Probes) were purchased as substrates for PTPase assays.
In vitro PTPase assays were used to determine the effects of compounds on recombinant PTPases, following established procedures using a synthetic phosphotyrosine peptide or DiFMUP as the substrate (Pathak et al., J. Imumol. 167, 3391 (2001)). Briefly, individual PTPases (0.1 μg/reaction) in 50 μL of PTPase buffer (50 mM Tris, pH 7.4) were incubated at 22° C. for 10 minutes or as indicated in the absence or presence of inhibitory compounds. Substrates (0.2 mM phosphotyrosine peptide) were then added and allowed to react at 22° C. for 18 hrs. PTPase activity of individual reactions was measured by adding 100 μL of malachite green solution (UBI) and then quantifying the amounts of free phosphate cleaved by the PTPase from the peptide substrate by spectrometry (OD660 nm). PTPase assays using DiFMUP as a substrate were conducted following a previously described procedure (Matter, et al., Biochem. Biophys. Res. Comm. 283, 1061 (2001)). Relative PTPase activities were calculated based on the formula: (PTPase activity in the presence of an inhibitory compound/PTPase activity in the absence of the compound)×100%. To assess the reversibility of PTPase inhibition, GST fusion proteins of the PTPases bound on glutathione beads (Pharmacia) were pre-incubated with cold Tris buffer (50 mM Tris, pH 7.0) or Tris buffer containing the inhibitor at 4° C. for 30 minutes. The beads were then washed three times in cold Tris buffer or not washed prior to subjecting to in vitro PTPase assays.

[8] = molecular target: T4, PTP1B (Homo sapiens, UniProt P18031); assay: In vitro PTPase assay, GST/PTP1B fusion protein; assay type: biochemical; settings: 1-1,000 μg/ml
T4 construct: purchased Upstate Biotechnology Inc. (Lake Placid, N.Y.)
Procedure: In vitro PTPase activities were measured using the commercial protein tyrosine phosphatase assay kit (Upstate Biotechnology, Inc. (“UBI”)) following established procedure known to one of skill in the art. This assay measures the in vitro dephosphorylation of a synthetic phosphotyrosine peptide of the sequence Arg-Arg-Leu-Ile-Glu-Asp-Ala-Gle-Tyr-Ala-Ala-Arg-Gly, wherein the tyrosine is phosphorylated (SEQ ID NO: 3). Briefly, 0.01 μg of GST/PTPase fusion proteins was incubated in 50 μl of Tris buffer (10 mM Tris, pH 7.4) containing different concentrations of inhibitors or chemicals (0-1,000 μg/ml) at 22° C. for 10 minutes, followed by addition of 0.2 mM of the phosphotyrosine peptide and incubation at 22° C. for 18 hours. 100 μl of Malachite Green solution was added and incubated for 5 minutes, and the absorbance at 660 nm was measured after 5 minutes.

[9] = test system: Jak2/Stat5; assay: IL-3-induced Jak2/Stat5 tyrosine phosphorylation in Baf3 cells; assay type: cell-based, murine
Procedure: For induction of cellular protein phosphorylation by sodium stibogluconate or pervanadate, Baf3 cells were incubated in 0.1% FCS-RPMI 1640 medium at 37° C. for 16 hours. The cells were then washed twice in RPMI 1640 medium and incubated with sodium stibogluconate or pervanandate (0.1 mM) for various times prior to termination by lysing cells in cold lysis buffer (50 mM Tris, pH 7.4; 150 mM NaCl; 0.2 mM Na3VO4; 20 mm NaF; 1% Nonidet P-40; 2 mM PMSF; 20 μg/ml of Aprotinin and 1 mM of sodium molybdic acid). To determine the effect of sodium stibogluconate or potassium antimonyl tartrate on IL-3-induced Jak/Stat phosphorylation, Baf3 cells were deprived of the growth factor for 16 hours in 0.1% FCS RPMI 1640 medium and then incubated with or without sodium stibogluconate or potassium antimonyl tartrate for 10 minutes. IL-3 was next added to the cell suspension and incubated for various times. The Cells were then harvested and lysed in cold lysis buffer at 4° C. for 45 minutes. Total cell lysates (TCL) were separated in SDS-PAGE gels, blotted onto nitrocellulose membrane (Schleicher & Schuell), probed with specific antibodies and detected using an enhanced chemiluminescence kit (ECL, Amersham, Arlington Heights, Ill.).

[10] = test system: Baf3 cells; assay: Baf3 cell proliferation assay; assay type: cell-based, murine
Procedure: The murine hematopoietic cell line Baf3 was maintained in RPMI 1640 medium supplemented with 10% fetal calf serum (FCS) and murine IL-3 (20 units/ml) as described previously in Damen et al., J. Biol. Chem. 270, 23402 (1995). Human myeloid cell line TF-1 was maintained in RPMI 1640 supplemented with 10% FCS and 40 ng/ml of recombinant human GM-CSF as described previously in Thomassen et al., Clin. Immunol. 95, 85 (2000). For cell proliferation assays, cells were washed in 10% FCS medium twice, resuspended in 10% FCS medium, incubated at 37° C. for 16 hours, and then cultured at 37° C. in 10% FCS medium containing various amounts of cytokines, sodium stibogluconate, or potassium antimonyl tartrate for 3-6 days as indicated. The cell numbers in proliferation assays were determined by an MTT assay or by microscopic cell counting as indicated.

T3 sequence (O75365 whole entry): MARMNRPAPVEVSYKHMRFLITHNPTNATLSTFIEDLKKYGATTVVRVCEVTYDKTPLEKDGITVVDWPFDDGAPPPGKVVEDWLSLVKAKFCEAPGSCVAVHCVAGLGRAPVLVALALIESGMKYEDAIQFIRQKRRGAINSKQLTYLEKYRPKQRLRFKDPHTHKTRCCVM
T4 sequence (P18031 whole entry, species assumed, the tested form may be a part): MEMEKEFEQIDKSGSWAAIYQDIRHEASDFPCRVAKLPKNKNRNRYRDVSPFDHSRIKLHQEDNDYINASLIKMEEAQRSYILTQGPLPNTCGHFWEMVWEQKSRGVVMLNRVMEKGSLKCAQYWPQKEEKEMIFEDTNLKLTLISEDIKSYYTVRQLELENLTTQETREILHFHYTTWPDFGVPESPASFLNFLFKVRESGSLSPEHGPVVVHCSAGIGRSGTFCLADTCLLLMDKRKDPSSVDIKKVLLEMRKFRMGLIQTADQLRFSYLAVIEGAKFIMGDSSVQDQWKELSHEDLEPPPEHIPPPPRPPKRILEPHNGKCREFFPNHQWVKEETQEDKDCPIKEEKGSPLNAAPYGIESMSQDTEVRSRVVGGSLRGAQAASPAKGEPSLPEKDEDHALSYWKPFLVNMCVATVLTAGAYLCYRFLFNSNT

inhibitory activity against GSTm8 [1]: no obvious inhibitory activity
inhibition of MKP1 [2]: substantial inhibition
inhibitory activity against SHP-1 ([3]; 3-4 μg/ml or 10-100 μg/ml): no obvious inhibitory activity
SMILES: c1ccc([C@H]2CN3CCSC3=N2)cc1 [levamisole]

SMILES: CC1=C(/C=C/C(C)=C/C=C/C(C)=C/C(=O)O)C(C)(C)CCC1 [ATRA, All-trans-retinoic acid]
cell cycle of NB4 cells [4]: arrested at GI phase
NBT-positive (differentiated) U937 cells [5]: 72% and 73%
NBT-positive (differentiated) HL-60 cells [6]: 90%

inhibition of PRL-3 with DiFMUP substrate [7]: less effective
inhibition of SHP-1 compared with sodium stibogluconate ([3]; comparable conditions): less effective
SMILES: Cc1ccc(C(=O)Nc2ccc(S(=O)(=O)O)c3cc(S(=O)(=O)O)cc(S(=O)(=O)O)c23)cc1NC(=O)c1cccc(NC(=O)Nc2cccc(C(=O)Nc3cc(C(=O)Nc4ccc(S(=O)(=O)O)c5cc(S(=O)(=O)O)cc(S(=O)(=O)O)c45)ccc3C)c2)c1 [Suramin]
reversibility of SHP-1 inhibition by washing ([3]; pre-incubated at 4° C. 30 minutes, beads washed 3 times): almost completely removed by the washing process

SMILES: O.O.O.O=C([O-])[C@H]([O-])[C@@H]([O-])C(=O)[O-].O=C([O-])[C@H]([O-])[C@@H]([O-])C(=O)[O-].[K+].[K+].[Sb+3].[Sb+3] [potassium antimonyl tartrate]
inhibition of PTP1B [8]: no detectable inhibition
IL-3-induced Stat5 phosphorylation [9]: failed to enhance
toxicity against Baf3 cells [10]: marked toxicity
IL-3-induced proliferation of Baf3 cells ([10]; IL-3 10 units/ml, three days): failed to enhance
inhibition of SHP-1 ([3]; 1-1,000 μg/ml): no detectable inhibition

SMILES: [Na+].[Na+].[Na+].[O]=[V]([O-])([O-])[O-] [sodium orthovanadate]
inhibition of PRL-3 with DiFMUP substrate [7]: less effective
